Laboratory results: patent publication US4476120A, “Thiolic derivatives of erythromycin having therapeutic activity, and pharmaceutical compositions containing them” (Sigma Tau Indistrie Farmaceutiche Riunites, p.A, priority 1982, dated 1984)
Values after ≈ are worked out from the molar mass of the structure shown.

Assays:
B. subtilis SS 127 = assay type: cell-based; conditions: Brain Heart Infusion, estolate and RV11-RV15 previously hydrolized, unit assumed
B. anthranis SS 08 = assay type: cell-based; conditions: Brain Heart Infusion, estolate and RV11-RV15 previously hydrolized, unit assumed
Citrobacter SS 05 = assay type: cell-based; conditions: Brain Heart Infusion, estolate and RV11-RV15 previously hydrolized, unit assumed
C. albicans SS 04 = assay type: cell-based; conditions: Brain Heart Infusion, estolate and RV11-RV15 previously hydrolized, unit assumed
E. cloacae SS 07 = assay type: cell-based; conditions: Brain Heart Infusion, estolate and RV11-RV15 previously hydrolized, unit assumed
[1] = Mucolytic activity: obstruction of the bronchial tract after SO2 inhalation; assay type: in vivo, Sprague Dawley male rats; conditions: oral, 500 mg/kg; SO2, 15 days
N. meningitidis SS 04 = assay type: cell-based; conditions: Brain Heart Infusion, estolate and RV11-RV15 previously hydrolized, unit assumed
Br. abortus SS 7 = assay type: cell-based; conditions: Brain Heart Infusion, estolate and RV11-RV15 previously hydrolized, unit assumed
[2] = test system: Strept. haemolyticus SS 18; assay type: cell-based; conditions: Brain Heart Infusion, estolate and RV11-RV15 previously hydrolized, unit assumed
Cl. tetani SS 17 = assay type: cell-based; conditions: Brain Heart Infusion, estolate and RV11-RV15 previously hydrolized, unit assumed
Acute toxicity = assay type: in vivo; conditions: mouse, in vivo, po
Description: The acute toxicity was assessed in Swiss white mice by oral and intravenous route. The LD50 values have been calculated by the methods of Probits, starting from the mortality recorded 10 days after the treatment.

Staph. aureus SS 07 [3] = assay type: cell-based; conditions: Brain Heart Infusion, estolate and RV11-RV15 previously hydrolized, unit assumed
E. coli SS 05 = assay type: cell-based; conditions: Brain Heart Infusion, estolate and RV11-RV15 previously hydrolized, unit assumed
[4] = test system: Strept. haemolyticus SS 17; assay type: cell-based; conditions: Brain Heart Infusion, estolate and RV11-RV15 previously hydrolized, unit assumed
E. coli SS 06 = assay type: cell-based; conditions: Brain Heart Infusion, estolate and RV11-RV15 previously hydrolized, unit assumed
S. lutea ATCC 9341 = assay type: cell-based; conditions: Brain Heart Infusion, estolate and RV11-RV15 previously hydrolized, unit assumed
Kl. aerogenes SS 71 = assay type: cell-based; conditions: Brain Heart Infusion, estolate and RV11-RV15 previously hydrolized, unit assumed
C. diphtheriae SS 19 = assay type: cell-based; conditions: Brain Heart Infusion, estolate and RV11-RV15 previously hydrolized, unit assumed
Staph. aureus SS 07 [5] = assay: Experimental infection induced by Staph. aureus SS 07; assay type: in vivo, Swiss white mice; conditions: os; Staph. aureus SS 07; mg/kg of erythromycin; survival after 7 days; 10080 min
Method in brief: (§1)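 Swiss mice of 20 g infected parenterally with lethal amounts of Staph. aureus SS 07 or D. pneumoniae SS 23. Antibiotics were given at infection and again 6 and 24 h later. ED50 was derived from survival at 7 days.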

E. coli SS 04 = assay type: cell-based; conditions: Brain Heart Infusion, estolate and RV11-RV15 previously hydrolized, unit assumed
D. pneumoniae SS 23 [6] = assay: Experimental infection induced by D. pneumoniae SS 23; assay type: in vivo, Swiss white mice; conditions: os; D. pneumoniae SS 23; mg/kg of erythromycin; survival after 7 days; 10080 min
Method in brief: as §1

Pr. mirabilis SS 09 = assay type: cell-based; conditions: Brain Heart Infusion, estolate and RV11-RV15 previously hydrolized, unit assumed
E. aerogenes SS 011 = assay type: cell-based; conditions: Brain Heart Infusion, estolate and RV11-RV15 previously hydrolized, unit assumed
E. coli SS 07 = assay type: cell-based; conditions: Brain Heart Infusion, estolate and RV11-RV15 previously hydrolized, unit assumed
Strept. faecalis SS 19 = assay type: cell-based; conditions: Brain Heart Infusion, estolate and RV11-RV15 previously hydrolized, unit assumed
S. heidelberg SS 18 = assay type: cell-based; conditions: Brain Heart Infusion, estolate and RV11-RV15 previously hydrolized, unit assumed
Staph. aureus SS 10 = assay type: cell-based; conditions: Brain Heart Infusion, estolate and RV11-RV15 previously hydrolized, unit assumed
Staph. albus SS 03 = assay type: cell-based; conditions: Brain Heart Infusion, estolate and RV11-RV15 previously hydrolized, unit assumed
Citrobacter SS 09 = assay type: cell-based; conditions: Brain Heart Infusion, estolate and RV11-RV15 previously hydrolized, unit assumed
B. subtilis ATCC 6633 = assay type: cell-based; conditions: Brain Heart Infusion, estolate and RV11-RV15 previously hydrolized, unit assumed
H. pertussis SS 03 = assay type: cell-based; conditions: Brain Heart Infusion, estolate and RV11-RV15 previously hydrolized, unit assumed
S. infantis SS 08 = assay type: cell-based; conditions: Brain Heart Infusion, estolate and RV11-RV15 previously hydrolized, unit assumed
D. pneumoniae SS 23 [7] = assay type: cell-based; conditions: Brain Heart Infusion, estolate and RV11-RV15 previously hydrolized, unit assumed
Ps. aeruginosa SS 10 = assay type: cell-based; conditions: Brain Heart Infusion, estolate and RV11-RV15 previously hydrolized, unit assumed
Br. melitensis SS 19 = assay type: cell-based; conditions: unit assumed
Staph. aureus SS 08 = assay type: cell-based; conditions: Brain Heart Infusion, estolate and RV11-RV15 previously hydrolized, unit assumed
H. influentiae SS 02 = assay type: cell-based; conditions: Brain Heart Infusion, estolate and RV11-RV15 previously hydrolized, unit assumed
B. anthranis SS 09 = assay type: cell-based; conditions: B. anthranis SS 09 (14 bis); Brain Heart Infusion; estolate and RV11-RV15 previously hydrolized; unit assumed
[8] = Histological examination of bronchi after SO2 inhalation; assay type: in vivo, Sprague Dawley male rats; conditions: oral, 500 mg/kg; for histological appearance of non obstructed bronchi: free non obstructed
B. cereus ATCC 11778 = assay type: cell-based; conditions: Brain Heart Infusion, estolate and RV11-RV15 previously hydrolized, unit assumed
H. tubercolosis SS 03 = assay type: cell-based; conditions: Brain Heart Infusion, estolate and RV11-RV15 previously hydrolized, unit assumed
Text: (§2) In the following table I the MIC/ml values are indicated corresponding to the lowest concentration capable of inducing a complete inhibition of the bacterial development.

Kl. pneumoniae SS 04 = assay type: cell-based; conditions: Brain Heart Infusion, estolate and RV11-RV15 previously hydrolized, unit assumed
Text: as §2

CCC(=O)O[C@H]1[C@H](O[C@@H]2[C@@H](C)[C@H](O[C@H]3C[C@@](C)(OC)[C@@H](O)[C@H](C)O3)[C@@H](C)C(=O)O[C@H](CC)[C@@](C)(O)[C@H](O)[C@@H](C)C(=O)[C@H](C)C[C@@]2(C)O)O[C@H](C)C[C@@H]1N(C)C [RV11, erythromycin-monopropionate-alpha-mercaptosuccinate]
MIC (B. subtilis SS 127): 0.05 µg/mL (≈ 0.0633 µM)
MIC (B. anthranis SS 08): 0.8 µg/mL (≈ 1.01 µM)
MIC (Citrobacter SS 05): > 200 µg/mL
MIC (C. albicans SS 04): 200 µg/mL (≈ 253 µM)
MIC (E. cloacae SS 07): > 200 µg/mL
Partial obstruction (% incidence) [1]: 13.33%
Total obstruction, compact plug (% incidence) [1]: 20%
Total obstruction, nodular mass (% incidence) [1]: 6.66%
Total obstruction, pimply mass (% incidence) [1]: 6.66%
MIC (N. meningitidis SS 04): 1.5 µg/mL (≈ 1.9 µM)
MIC (Br. abortus SS 7): 6 µg/mL (≈ 7.59 µM)
MIC [2]: 1.5 µg/mL (≈ 1.9 µM)
MIC (Cl. tetani SS 17): 0.2 µg/mL (≈ 0.253 µM)
LD50 at 240 h (Acute toxicity; os, mortality 10 days after treatment, mice, read-out: LD50 (reliability limits)): 3000 mg/kg
MIC (Staph. aureus SS 07 [3]): 0.05 µg/mL (≈ 0.0633 µM)
MIC (E. coli SS 05): 100 µg/mL (≈ 127 µM)
MIC [4]: 1.5 µg/mL (≈ 1.9 µM)
MIC (E. coli SS 06): 50 µg/mL (≈ 63.3 µM)
MIC (S. lutea ATCC 9341): 0.01 µg/mL (≈ 0.0127 µM)
MIC (Kl. aerogenes SS 71): 100 µg/mL (≈ 127 µM)
MIC (C. diphtheriae SS 19): 0.01 µg/mL (≈ 0.0127 µM)
ED50 (reliability limits) (Staph. aureus SS 07 [5]): 2.14 (2.40-1.91) mg/kg
MIC (E. coli SS 04): 50 µg/mL (≈ 63.3 µM)
ED50 (reliability limits) (D. pneumoniae SS 23 [6]): 100.41 (122.52-82.30) mg/kg
MIC (Pr. mirabilis SS 09): > 200 µg/mL
MIC (E. aerogenes SS 011): 100 µg/mL (≈ 127 µM)
MIC (E. coli SS 07): 50 µg/mL (≈ 63.3 µM)
MIC (Strept. faecalis SS 19): 0.05 µg/mL (≈ 0.0633 µM)
MIC (S. heidelberg SS 18): 100 µg/mL (≈ 127 µM)
MIC (Staph. aureus SS 10): 0.025 µg/mL (≈ 0.0316 µM)
MIC (Staph. albus SS 03): 0.05 µg/mL (≈ 0.0633 µM)
MIC (Citrobacter SS 09): > 200 µg/mL
MIC (B. subtilis ATCC 6633): 0.025 µg/mL (≈ 0.0316 µM)
MIC (H. pertussis SS 03): 0.4 µg/mL (≈ 0.506 µM)
MIC (S. infantis SS 08): 100 µg/mL (≈ 127 µM)
MIC (D. pneumoniae SS 23 [7]): 0.025 µg/mL (≈ 0.0316 µM)
MIC (Ps. aeruginosa SS 10): 100 µg/mL (≈ 127 µM)
MIC (Br. melitensis SS 19): 3 µg/mL (≈ 3.8 µM)
MIC (Staph. aureus SS 08): 0.025 µg/mL (≈ 0.0316 µM)
MIC (H. influentiae SS 02): 0.8 µg/mL (≈ 1.01 µM)
MIC (B. anthranis SS 09): 0.4 µg/mL (≈ 0.506 µM)
histological appearance of non obstructed bronchi [8]: presence of bronchi having almost normal appearance
histological appearance of obstructed bronchial tract [8]: fully like that of the control animals
MIC (B. cereus ATCC 11778): 0.8 µg/mL (≈ 1.01 µM)
MIC (H. tubercolosis SS 03): 50 µg/mL (≈ 63.3 µM)
MIC (Kl. pneumoniae SS 04): 200 µg/mL (≈ 253 µM)

CCC(=O)O[C@H]1[C@H](O[C@@H]2[C@@H](C)[C@H](O[C@H]3C[C@@](C)(OC)[C@@H](O)[C@H](C)O3)[C@@H](C)C(=O)O[C@H](CC)[C@@](C)(O)[C@H](O)[C@@H](C)C(=O)[C@H](C)C[C@@]2(C)O)O[C@H](C)C[C@@H]1N(C)C [RV13, erythromycin-monopropionate-thiazolidin-carboxylate]
MIC (B. subtilis SS 127): 0.025 µg/mL (≈ 0.0316 µM)
MIC (B. anthranis SS 08): 0.4 µg/mL (≈ 0.506 µM)
MIC (Citrobacter SS 05): > 200 µg/mL
MIC (C. albicans SS 04): 100 µg/mL (≈ 127 µM)
MIC (E. cloacae SS 07): > 200 µg/mL
Partial obstruction (% incidence) [1]: 20%
Total obstruction, compact plug (% incidence) [1]: 20%
Total obstruction, nodular mass (% incidence) [1]: 6.66%
Total obstruction, pimply mass (% incidence) [1]: 13.33%
MIC (N. meningitidis SS 04): 0.8 µg/mL (≈ 1.01 µM)
MIC (Br. abortus SS 7): 6 µg/mL (≈ 7.59 µM)
MIC [2]: 1.5 µg/mL (≈ 1.9 µM)
MIC (Cl. tetani SS 17): 0.2 µg/mL (≈ 0.253 µM)
LD50 (reliability limits) (Acute toxicity; 14400 min): 3000 mg·kg
MIC (Staph. aureus SS 07 [3]): 0.025 µg/mL (≈ 0.0316 µM)
MIC (E. coli SS 05): 50 µg/mL (≈ 63.3 µM)
MIC [4]: 1.5 µg/mL (≈ 1.9 µM)
MIC (E. coli SS 06): 50 µg/mL (≈ 63.3 µM)
MIC (S. lutea ATCC 9341): 0.025 µg/mL (≈ 0.0316 µM)
MIC (Kl. aerogenes SS 71): 100 µg/mL (≈ 127 µM)
MIC (C. diphtheriae SS 19): 0.01 µg/mL (≈ 0.0127 µM)
ED50 (reliability limits) (Staph. aureus SS 07 [5]): 2.20 (2.44-1.99) mg/kg
MIC (E. coli SS 04): 100 µg/mL (≈ 127 µM)
ED50 (reliability limits) (D. pneumoniae SS 23 [6]): 113.88 (144.73-89.60) mg/kg
MIC (Pr. mirabilis SS 09): > 200 µg/mL
MIC (E. aerogenes SS 011): 50 µg/mL (≈ 63.3 µM)
MIC (E. coli SS 07): 50 µg/mL (≈ 63.3 µM)
MIC (Strept. faecalis SS 19): 0.05 µg/mL (≈ 0.0633 µM)
MIC (S. heidelberg SS 18): 100 µg/mL (≈ 127 µM)
MIC (Staph. aureus SS 10): 0.1 µg/mL (≈ 0.127 µM)
MIC (Staph. albus SS 03): 0.05 µg/mL (≈ 0.0633 µM)
MIC (Citrobacter SS 09): > 200 µg/mL
MIC (B. subtilis ATCC 6633): 0.025 µg/mL (≈ 0.0316 µM)
MIC (H. pertussis SS 03): 0.2 µg/mL (≈ 0.253 µM)
MIC (S. infantis SS 08): 100 µg/mL (≈ 127 µM)
MIC (D. pneumoniae SS 23 [7]): 0.025 µg/mL (≈ 0.0316 µM)
MIC (Ps. aeruginosa SS 10): 100 µg/mL (≈ 127 µM)
MIC (Br. melitensis SS 19): 3 µg/mL (≈ 3.8 µM)
MIC (Staph. aureus SS 08): 0.05 µg/mL (≈ 0.0633 µM)
MIC (H. influentiae SS 02): 1.5 µg/mL (≈ 1.9 µM)
MIC (B. anthranis SS 09): 0.4 µg/mL (≈ 0.506 µM)
histological appearance of non obstructed bronchi [8]: presence of bronchi having almost normal appearance
histological appearance of obstructed bronchial tract [8]: fully like that of the control animals
MIC (B. cereus ATCC 11778): 0.8 µg/mL (≈ 1.01 µM)
MIC (H. tubercolosis SS 03): 50 µg/mL (≈ 63.3 µM)
MIC (Kl. pneumoniae SS 04): 100 µg/mL (≈ 127 µM)
